Test results published in patent US20220235049A1, “SUBSTITUTED PYRROLO [2, 3-b] PYRIDINE AND PYRAZOLO [3,4-b] PYRIDINE DERIVATIVES AS PROTEIN KINASE INHIBITORS” (Fochon Pharmaceuticals, Ltd., priority 2019, published 2022).

tested on: DOHH2 cells; experiment: Cell proliferation assay in DOHH2 cells (MTS); type: cell-based; conditions: 120 h
Procedure: To investigate whether a compound is able to inhibit the activity of BTK in cells, a mechanism-based assay using DOHH2 (DSMZ catalog #: ACC47) cell was developed. In this assay, inhibition of BTK was detected by the inhibition of DOHH2 cells proliferation. Cells were collected and plated onto 96-well plates at the optimized cell density (5000 cells/well). Plates were incubated at 37° C., with 5% CO2 for 4 h. Compounds were serially diluted and added to the plates with the final concentrations as 10000, 3333.3, 1111.1, 370.4, 123.5, 41.2, 13.7, 4.6 and 1.5 nM. Plates were incubated at 37° C., with 5% CO2 for 120 h. An aliquot of 20 μL MTS/100 μL medium mixture solution were added to each well and the plates were incubated for exactly 2 h. The reaction was stopped by adding 25 μL 10% SDS to each well. The absorbance was measured by a microplate reader at 490 nm and 650 nm (reference wavelength). IC50 was calculated using GraphPad Prism 5.0.
Select compounds prepared as described above were assayed according to the biological procedures described herein.

Row | SMILES | IC50
1 | CCOc1cnc2[nH]cc(C(=O)c3ccc(Oc4ccccc4F)cc3C)c2c1N[C@@]12CO[C@H](CO)C1C2 (single isomer, unassigned) [Example 170] | 12 nM

same assay, conditions: Homo sapiens, DOHH-2, 120 h

Row | SMILES | IC50
2 | O=C(c1ccc(Oc2c(F)cccc2F)cc1Cl)c1c[nH]c2ncc(Cl)c(N[C@@H]3CC[C@@H](CO)OC3)c12 [Example 189, (5-chloro-4-(((3R,6S)-6-(hydroxymethyl)tetrahydro-2H-pyran-3-yl)amino)-1H-pyrrolo[2,3-b]pyridin-3-yl)(2-chloro-4-(2,6-difluorophenoxy)phenyl)methanone] | 32 nM
3 | N#Cc1cnc2[nH]cc(C(=O)c3ccc(Oc4ccccc4)cc3Cl)c2c1N[C@@]12COC(CO)[C@@H]1C2 (single isomer, unassigned) [Example 17] | 43 nM
4 | CCOc1cnc2[nH]cc(C(=O)c3ccc(Oc4ccccc4F)cc3C)c2c1N[C@@H]1CC[C@@H](CO)OC1 [Example 64, (5-ethoxy-4-(((3R,6S)-6-(hydroxymethyl)tetrahydro-2H-pyran-3-yl)amino)-1H-pyrrolo[2,3-b]pyridin-3-yl)(4-(2-fluorophenoxy)-2-methylphenyl)methanone] | 1 nM
5 | CCOc1cnc2[nH]cc(C(=O)c3ccc(Oc4ccccc4)cc3)c2c1N[C@@H]1CC[C@@H](CO)OC1 [Example 178, (5-ethoxy-4-(((3R,6S)-6-(hydroxymethyl)tetrahydro-2H-pyran-3-yl)amino)-1H-pyrrolo[2,3-b]pyridin-3-yl)(4-phenoxyphenyl)methanone] | 15 nM
6 | N#Cc1cnc2[nH]cc(C(=O)c3ccc(Oc4ccccc4F)cc3Cl)c2c1N[C@@H]1CC[C@@H](CO)OC1 [Example 32, 3-(2-chloro-4-(2-fluorophenoxy)benzoyl)-4-(((3R,6S)-6-(hydroxymethyl)tetrahydro-2H-pyran-3-yl)amino)-1H-pyrrolo[2,3-b]pyridine-5-carbonitrile] | 15 nM
7 | Cc1cc(Oc2ccccc2F)ncc1C(=O)c1c[nH]c2nccc(N[C@@H]3CC[C@@H](CO)OC3)c12 [Example 103, (6-(2-fluorophenoxy)-4-methylpyridin-3-yl)(4-(((3R,6S)-6-(hydroxymethyl)tetrahydro-2H-pyran-3-yl)amino)-1H-pyrrolo[2,3-b]pyridin-3-yl)methanone] | 39 nM
8 | Cc1cc(Oc2c(F)cccc2F)ccc1C(=O)c1c[nH]c2ncc(F)c(N[C@@H]3CC[C@@H](CO)OC3)c12 [Example 185, (4-(2,6-difluorophenoxy)-2-methylphenyl)(5-fluoro-4-(((3R,6S)-6-(hydroxymethyl)tetrahydro-2H-pyran-3-yl)amino)-1H-pyrrolo[2,3-b]pyridin-3-yl)methanone] | 14 nM
9 | Cc1nc(Oc2ccccc2)ccc1C(=O)c1c[nH]c2nccc(N[C@@H]3CC[C@@H](CO)OC3)c12 [Example 41, (4-(((3R,6S)-6-(hydroxymethyl)tetrahydro-2H-pyran-3-yl)amino)-1H-pyrrolo[2,3-b]pyridin-3-yl)(2-methyl-6-phenoxypyridin-3-yl)methanone] | 53 nM
10 | COc1cnc2[nH]cc(C(=O)c3ccc(Oc4c(F)cccc4F)cc3F)c2c1N[C@@H]1CC[C@@H](CO)OC1 [Example 192, (4-(2,6-difluorophenoxy)-2-fluorophenyl)(4-(((3R,6S)-6-(hydroxymethyl)tetrahydro-2H-pyran-3-yl)amino)-5-methoxy-1H-pyrrolo[2,3-b]pyridin-3-yl)methanone] | 8 nM
11 | COc1cnc2[nH]cc(C(=O)c3ccc(Oc4ccccc4)cc3)c2c1N[C@@H]1CC[C@@H](CO)OC1 [Example 177, (4-(((3R,6S)-6-(hydroxymethyl)tetrahydro-2H-pyran-3-yl)amino)-5-methoxy-1H-pyrrolo[2,3-b]pyridin-3-yl)(4-phenoxyphenyl)methanone] | 9 nM
12 | O=C(c1ccc(Oc2c(F)cccc2F)cc1)c1c[nH]c2ncc(Cl)c(N[C@@H]3CC[C@@H](CO)OC3)c12 [Example 190, (5-chloro-4-(((3R,6S)-6-(hydroxymethyl)tetrahydro-2H-pyran-3-yl)amino)-1H-pyrrolo[2,3-b]pyridin-3-yl)(4-(2,6-difluorophenoxy)phenyl)methanone] | 11 nM
13 | O=C(c1ccc(Oc2ccccc2F)cc1F)c1c[nH]c2nccc(N[C@@H]3CC[C@@H](CO)OC3)c12 [Example 102, (2-fluoro-4-(2-fluorophenoxy)phenyl)(4-(((3R,6S)-6-(hydroxymethyl)tetrahydro-2H-pyran-3-yl)amino)-1H-pyrrolo[2,3-b]pyridin-3-yl)methanone] | 7 nM
14 | COc1cnc2[nH]cc(C(=O)c3ccc(Oc4c(F)cccc4F)cc3C)c2c1N[C@@H]1CC[C@@H](CO)OC1 [Example 188, (4-(2,6-difluorophenoxy)-2-methylphenyl)(4-(((3R,6S)-6-(hydroxymethyl)tetrahydro-2H-pyran-3-yl)amino)-5-methoxy-1H-pyrrolo[2,3-b]pyridin-3-yl)methanone] | 4 nM
15 | O=C(c1ccc(Oc2ccccc2F)cc1Cl)c1c[nH]c2ncc(F)c(N[C@@H]3CC[C@@H](CO)OC3)c12 [Example 125, (2-chloro-4-(2-fluorophenoxy)phenyl)(5-fluoro-4-(((3R,6S)-6-(hydroxymethyl)tetrahydro-2H-pyran-3-yl)amino)-1H-pyrrolo[2,3-b]pyridin-3-yl)methanone] | 1 nM
16 | Cc1cc(Oc2ccccc2)ccc1C(=O)c1c[nH]c2ncc(F)c(N[C@@H]3CC[C@@H](CO)OC3)c12 [Example 15, (5-fluoro-4-(((3R,6S)-6-(hydroxymethyl)tetrahydro-2H-pyran-3-yl)amino)-1H-pyrrolo[2,3-b]pyridin-3-yl)(2-methyl-4-phenoxyphenyl)methanone] | 85 nM
17 | N#Cc1cnc2[nH]cc(C(=O)c3ccc(Oc4ccccc4F)cc3)c2c1N[C@@H]1CC[C@@H](CO)OC1 [Example 88, 3-(4-(2-fluorophenoxy)benzoyl)-4-(((3R,6S)-6-(hydroxymethyl)tetrahydro-2H-pyran-3-yl)amino)-1H-pyrrolo[2,3-b]pyridine-5-carbonitrile] | 99 nM
18 | O=C(c1ccc(Oc2ccccc2)cc1F)c1c[nH]c2ncc(F)c(N[C@@H]3CC[C@@H](CO)OC3)c12 [Example 58, (5-fluoro-4-(((3R,6S)-6-(hydroxymethyl)tetrahydro-2H-pyran-3-yl)amino)-1H-pyrrolo[2,3-b]pyridin-3-yl)(2-fluoro-4-phenoxyphenyl)methanone] | 23 nM
19 | CCOc1cnc2[nH]cc(C(=O)c3c(C)cc(Oc4ccccc4F)cc3F)c2c1N[C@@H]1CC[C@@H](CO)OC1 [Example 135, (5-ethoxy-4-(((3R,6S)-6-(hydroxymethyl)tetrahydro-2H-pyran-3-yl)amino)-1H-pyrrolo[2,3-b]pyridin-3-yl)(2-fluoro-4-(2-fluorophenoxy)-6-methylphenyl)methanone] | 1 nM
20 | COc1cnc2[nH]cc(C(=O)c3c(F)cc(Oc4ccccn4)cc3F)c2c1N[C@@H]1CC[C@@H](CO)OC1 [Example 198, (2,6-difluoro-4-(pyridin-2-yloxy)phenyl)(4-(((3R,6S)-6-(hydroxymethyl)tetrahydro-2H-pyran-3-yl)amino)-5-methoxy-1H-pyrrolo[2,3-b]pyridin-3-yl)methanone] | 52 nM
21 | Cc1cc(Oc2ccccc2F)ccc1C(=O)c1c[nH]c2ncc(Cl)c(N[C@@H]3CC[C@@H](CO)OC3)c12 [Example 87, (5-chloro-4-(((3R,6S)-6-(hydroxymethyl)tetrahydro-2H-pyran-3-yl)amino)-1H-pyrrolo[2,3-b]pyridin-3-yl)(4-(2-fluorophenoxy)-2-methylphenyl)methanone] | 17 nM
22 | COc1cnc2[nH]cc(C(=O)c3c(F)cc(Oc4c(F)cccc4F)cc3F)c2c1N[C@@H]1CC[C@@H](CO)OC1 [Example 193, (4-(2,6-difluorophenoxy)-2,6-difluorophenyl)(4-(((3R,6S)-6-(hydroxymethyl)tetrahydro-2H-pyran-3-yl)amino)-5-methoxy-1H-pyrrolo[2,3-b]pyridin-3-yl)methanone] | 12 nM
23 | Cc1cc(Oc2ccccc2F)ccc1C(=O)c1c[nH]c2nccc(N[C@@H]3CC[C@@H](CO)OC3)c12 [Example 46, (4-(2-fluorophenoxy)-2-methylphenyl)(4-(((3R,6S)-6-(hydroxymethyl)tetrahydro-2H-pyran-3-yl)amino)-1H-pyrrolo[2,3-b]pyridin-3-yl)methanone] | 1 nM
24 | COc1cnc2[nH]cc(C(=O)c3ccc(Oc4c(F)cccc4F)cc3Cl)c2c1N[C@@H]1CC[C@@H](CO)OC1 [Example 186, (2-chloro-4-(2,6-difluorophenoxy)phenyl)(4-(((3R,6S)-6-(hydroxymethyl)tetrahydro-2H-pyran-3-yl)amino)-5-methoxy-1H-pyrrolo[2,3-b]pyridin-3-yl)methanone] | 17 nM
25 | O=C(c1ccc(Oc2c(F)cccc2F)cc1)c1c[nH]c2ncc(F)c(N[C@@H]3CC[C@@H](CO)OC3)c12 [Example 183, (4-(2,6-difluorophenoxy)phenyl)(5-fluoro-4-(((3R,6S)-6-(hydroxymethyl)tetrahydro-2H-pyran-3-yl)amino)-1H-pyrrolo[2,3-b]pyridin-3-yl)methanone] | 17 nM
26 | O=C(c1ccc(Oc2ccccc2F)cc1F)c1c[nH]c2ncc(Cl)c(N[C@@H]3CC[C@@H](CO)OC3)c12 [Example 99, (5-chloro-4-(((3R,6S)-6-(hydroxymethyl)tetrahydro-2H-pyran-3-yl)amino)-1H-pyrrolo[2,3-b]pyridin-3-yl)(2-fluoro-4-(2-fluorophenoxy)phenyl)methanone] | 24 nM
